From ChEMBL document CHEMBL2440076, “New triarylpyrazoles as broad-spectrum anticancer agents: design, synthesis, and biological evaluation” (Eur J Med Chem, 2013)

Legend:
Type in all cases: functional
T47D = test: Growth inhibition of human T47D cells assessed as cell growth at 10 uM after 48 hrs by sulforhodamine B assay; conditions: read-out: Activity
MDA-MB-468 = test: Growth inhibition of human MDA-MB-468 cells assessed as cell growth at 10 uM after 48 hrs by sulforhodamine B assay; conditions: MDA-MB-468, 48 h, read-out: Activity
UO-31 = test: Growth inhibition of human UO31 cells assessed as cell growth at 10 uM after 48 hrs by sulforhodamine B assay; conditions: UO-31, 48 h, read-out: Activity
SN12C = test: Growth inhibition of human SN12C cells assessed as cell growth at 10 uM after 48 hrs by sulforhodamine B assay; conditions: read-out: Activity
RXF 393 = test: Growth inhibition of human RXF393 cells assessed as cell growth at 10 uM after 48 hrs by sulforhodamine B assay; conditions: RXF 393, 48 h, read-out: Activity
OVCAR-5 = test: Growth inhibition of human OVCAR5 cells assessed as cell growth at 10 uM after 48 hrs by sulforhodamine B assay; conditions: OVCAR-5, 48 h, read-out: Activity
OVCAR-8 = test: Growth inhibition of human OVCAR8 cells assessed as cell growth at 10 uM after 48 hrs by sulforhodamine B assay; conditions: OVCAR-8, 48 h, read-out: Activity
UACC-62 = test: Growth inhibition of human UACC62 cells assessed as cell growth at 10 uM after 48 hrs by sulforhodamine B assay; conditions: UACC-62, 48 h, read-out: Activity
IGROV-1 = test: Growth inhibition of human IGROV1 cells assessed as cell growth at 10 uM after 48 hrs by sulforhodamine B assay; conditions: IGROV-1, 48 h, read-out: Activity
UACC-257 = test: Growth inhibition of human UACC257 cells assessed as cell growth at 10 uM after 48 hrs by sulforhodamine B assay; conditions: UACC-257, 48 h, read-out: Activity
SK-MEL-5 = test: Growth inhibition of human SK-MEL-5 cells assessed as cell growth at 10 uM after 48 hrs by sulforhodamine B assay; conditions: SK-MEL-5, 48 h, read-out: Activity
Malme-3M = test: Growth inhibition of human MALME-3M cells assessed as cell growth at 10 uM after 48 hrs by sulforhodamine B assay; conditions: read-out: Activity
SF-539 = test: Growth inhibition of human SF539 cells assessed as cell growth at 10 uM after 48 hrs by sulforhodamine B assay; conditions: SF-539, 48 h, read-out: Activity
NCI-H460 = test: Growth inhibition of human NCI-H460 cells assessed as cell growth at 10 uM after 48 hrs by sulforhodamine B assay; conditions: NCI-H460, 48 h, read-out: Activity
NCI-H226 = test: Growth inhibition of human NCI-H226 cells assessed as cell growth at 10 uM after 48 hrs by sulforhodamine B assay; conditions: NCI-H226, 48 h, read-out: Activity
RPMI-8226 = test: Growth inhibition of human RPMI8226 cells assessed as cell growth at 10 uM after 48 hrs by sulforhodamine B assay; conditions: RPMI-8226, 48 h, read-out: Activity
MOLT-4 = test: Growth inhibition of human MOLT4 cells assessed as cell growth at 10 uM after 48 hrs by sulforhodamine B assay; conditions: MOLT-4, 48 h, read-out: Activity
K562 = test: Growth inhibition of human K562 cells assessed as cell growth at 10 uM after 48 hrs by sulforhodamine B assay; conditions: K562, 48 h, read-out: Activity

Row | SMILES | growth at 10 µM (T47D) | growth at 10 µM (MDA-MB-468) | growth at 10 µM (UO-31) | growth at 10 µM (SN12C) | growth at 10 µM (RXF 393) | growth at 10 µM (OVCAR-5) | growth at 10 µM (OVCAR-8) | growth at 10 µM (UACC-62) | growth at 10 µM (IGROV-1) | growth at 10 µM (UACC-257) | growth at 10 µM (SK-MEL-5) | growth at 10 µM (Malme-3M) | growth at 10 µM (SF-539) | growth at 10 µM (NCI-H460) | growth at 10 µM (NCI-H226) | growth at 10 µM (RPMI-8226) | growth at 10 µM (MOLT-4) | growth at 10 µM (K562)
1 | COc1cc(-c2nn(-c3cccc(NC(=O)Nc4ccccc4)c3)cc2-c2ccncc2)ccc1Cl | 75.6% | 83.4% | 56.5% | 86.2% | 72.8% | 91.3% | 77.9% | 86.5% | 86.5% | 84.5% | 79.9% | 57.7% | 90% | 93.7% | 92.3% | 68% | 57% | 45.4%
2 | COc1cc(-c2nn(-c3cccc(NC(=O)c4ccc(Br)c(C)c4)c3)cc2-c2ccncc2)ccc1Cl | 70.3% | 83.5% | 53.8% | 81% | 41.7% | 90.7% | 77.3% | 79.9% | 76.2% | 79.5% | 71% | 52.7% | 76.8% | 80.9% | 84.7% | 64.7% | 68.7% | 77.3%
3 | O=C(Nc1cccc(-n2cc(-c3ccncc3)c(-c3ccc(Cl)c(O)c3)n2)c1)c1ccccc1 | 73.9% | 64.1% | 83.1% | 79.3% | 0.59% | 115% | 50.9% | 68.3% | 88% | 44.2% | 59.4% | 53.1% | 74.7% | 48.7% | 89.6% | 60.5% | 69.5% | 60.7%
